Measurements reported in patent publication US6342502B1, “Thieno[2,3-d]pyrimidine diones and their use in the treatment of reversible obstructive airways diseases” (AstraZeneca AB, priority 1997, dated 2002).

Row | SMILES | melting point
1 | CC(C)Cn1c(=O)n(C)c(=O)c2c(Sc3cccc[n+]3[O-])c(Cc3cccc4ccccc34)sc21 [Example 38, 2-{[1,2,3,4-Tetrahydro-3-methyl-1-(2-methylpropyl)-6-(1-naphthalenylmethyl)-2,4-dioxothieno[2,3-d]pyrimidin-5-yl]thio}pyridine N-oxide] | 228 to 229 °C
2 | CC(C)Cn1c(=O)n(C)c(=O)c2cc(Cc3cccc4ccccc34)sc21 [Example 4] | 137 to 138 °C
3 | CC(C)Cn1c(=O)n(C)c(=O)c2c(NC(=O)NCCO)c(Cc3cccc4ccccc34)sc21 [Example 48] | 227 to 228 °C

Next, values leading:

Row | melting point | SMILES
4 | 99 to 100 °C | CC(C)Cn1c(=O)n(C)c(=O)c2c(SCCCO)c(Cc3cccc(F)c3)sc21 [Example 86]
5 | 54 °C | CC(C)Cn1c(=O)n(C)c(=O)c2cc(C(O)c3cccc(F)c3)sc21 (stereo not drawn) [Example 51, 6-[(1-Hydroxy-1-(3-fluorophenyl))methyl]-3-methyl-1l-(2-methylpropyl)thieno[2,3-d]pyrimiidine-2,4-(1H, 3H)-dione]
6 | 100 to 105 °C | CC(C)Cn1c(=O)n(C)c(=O)c2c(SCCCO)c(C(O)c3cccc4ccccc34)sc21 (racemic) [Example 83, (±) 6-(1-Hydroxy-1-[1-naphthalenyl]methyl)-5-([3-hydroxypropyl]thio)-3-methyl-1-(2-methylpropyl)thieno[2,3-d]pyrimidine-2,4(1H,3H)-dione]
